18 molecules from ChEMBL document CHEMBL1133422, “The S-alkyl chain length as a determinant of the anti-leukemic activity of cysteine chloromethyl ketone compounds” (Bioorg Med Chem Lett, 2000) can be followed below.

In general, IC50 refers to the concentration that inhibits the measured activity by half.

One assay concerns MOLT-3. The assay can be described thus: Anti-leukemic activity against Molt-3 (T-lineage ALL, human acute lymphoblastic leukemia) cell line. The class given is functional, cell-based.
A further assay deals with NALM-6. The assay can be described thus: Anti-leukemic activity against Nalm-6 (B-lineage ALL, human acute lymphoblastic leukemia) cell line. The class given is functional, cell-based.

For `CCCCCCCCCCCSC[C@H](NC(C)=O)C(=O)CCl`, the IC50 with MOLT-3 was found to be 3 µM; with NALM-6, 1.7 µM.
On to `CCCCCCCCCSC[C@H](NC(C)=O)C(=O)CCl`, for which the results for the IC50 with MOLT-3 and in the assay with NALM-6 were 6.7 µM and 7.3 µM, respectively.
With `CCCCCCCCCCCCCCCCSC[C@H](NC(C)=O)C(=O)CCl`, the IC50 in the assay with MOLT-3 is 17.3 µM; in the assay with NALM-6 it was 16 µM.
The like results for `CCCCSC[C@H](NC(C)=O)C(=O)CCl` were, in that order, 5.6 µM and 41.4 µM.
For the molecule `CCCCCCSC[C@H](NC(C)=O)C(=O)CCl`, the IC50 was 0.7 µM in the assay with MOLT-3 and 3.3 µM in the assay on NALM-6.
On to `CCCCCSC[C@H](NC(C)=O)C(=O)CCl`, for which the IC50 with MOLT-3 amounted to 5.4 µM; in the assay with NALM-6, 5.8 µM.
Turning to `CCCCCCCCSC[C@H](NC(C)=O)C(=O)CCl`, the figures for the IC50 with MOLT-3 and with NALM-6 were 4.1 µM and 5.6 µM, respectively.
The like results for `CCCCCCCCCCCCCCCCCCCCSC[C@H](NC(C)=O)C(=O)CCl` were, in that order, > 100 µM and > 100 µM.
Take `CCCCCCCSC[C@H](NC(C)=O)C(=O)CCl`: the values for the IC50 in the assay on MOLT-3 and in the assay on NALM-6 were 2.5 µM and 4.8 µM, respectively.
With `CSC[C@H](NC(C)=O)C(=O)CCl`, the IC50 with MOLT-3 stood at 80.8 µM; with NALM-6 it was 30.3 µM.
`CCCCCCCCCCCCCCCSC[C@H](NC(C)=O)C(=O)CCl`: the IC50 with MOLT-3 came out at 8.6 µM; in the assay with NALM-6 it was 8.9 µM.
On to `CCCSC[C@H](NC(C)=O)C(=O)CCl`, for which the figures for the 50% inhibitory concentration (IC50) in the assay on MOLT-3 and with NALM-6 were 8 µM and 6.9 µM, respectively.
`CCCCCCCCCCSC[C@H](NC(C)=O)C(=O)CCl`: the IC50 with MOLT-3 amounted to 3.4 µM; with NALM-6, 4.7 µM.
For the molecule `CCCCCCCCCCCCCCCCCCSC[C@H](NC(C)=O)C(=O)CCl`, the IC50 with MOLT-3 and with NALM-6 was > 100 µM each time.
As for `CCCCCCCCCCCCCSC[C@H](NC(C)=O)C(=O)CCl`, the IC50 in the assay with MOLT-3 and with NALM-6 was > 100 µM in each case.
In the case of `CCSC[C@H](NC(C)=O)C(=O)CCl`, the results for the IC50 with MOLT-3 and with NALM-6 were 99.9 µM and 52.8 µM, respectively.
Consider `CCCCCCCCCCCCCCCCCCCCCCSC[C@H](NC(C)=O)C(=O)CCl`, for which the IC50 in the assay on MOLT-3 and in the assay on NALM-6 was > 100 µM in each case.
`CCCCCCCCCCCCCCSC[C@H](NC(C)=O)C(=O)CCl`: the results for the IC50 in the assay on MOLT-3 and in the assay on NALM-6 were 8.8 µM and 8.7 µM, respectively.
